Test: Human HepG2 cell viability assay in 384 well format
Assay type: toxicity, cell-based
Set-up: dose 125 nL, time 70.5 hour; cytotoxicity at 70.5 h: concentration not given beside the values
Details: HepG2 cells, read-out: Inhibition

| SMILES | cytotoxicity at 70.5 h [%] |
| --- | --- |
| CC(CN1CCOCC1)NC(=O)NCCc1ccc(Cl)s1 (stereo not given) | -6.3 |
| CC(C)COCCC(=O)NCc1cn2cc(Br)ccc2n1 | 18.2 |
| COc1ccc(-c2nnc(SC(C)C(=O)NC(C)(C)C)[nH]2)c(OC)c1 (stereo not given) | 32.5 |
| O=C(CCCOc1ccccc1F)Nc1cc[nH]n1 | -6.95 |
| CC(C(=O)NCc1cn2cc(Br)ccc2n1)S(C)(=O)=O (stereo not given) | -5.34 |
| Cc1cc(NS(=O)(=O)c2ccc(Cl)s2)ccc1-n1cccc1C(=O)O | -4.85 |
| CS(=O)(=O)N1CCc2c(cccc2NC(=O)Nc2ccccn2)C1 | 10.3 |
| FC(F)(F)c1ccnc(N2CCCN(C3CCOCC3)CC2)c1 | -11.5 |
| Cc1cccc(N2CCC(NCc3cnc(C4CCC4)s3)CC2)n1 | 3.13 |
| CC(C)(C)OC(=O)N1CCCN(c2nnc(C3CC3)s2)CC1 | -0.941 |
| FC(F)(F)c1ccnc(N2CCCOCC2)c1 | -13.6 |
| c1cncc(CN2CCC(NCCc3ccc4c(c3)CCO4)CC2)c1 | 4.11 |
| NCc1ccc(Oc2cccc(Cl)c2Cl)cc1 | 14.7 |
| CCOc1ccccc1Oc1ccc(CN)cn1 | -7.48 |
| CCc1nc(COc2ccc(N(C)C(C)=O)cc2)no1 | 26 |
| O=c1cc(CN2CCC(CCc3ccc(O)cc3)CC2)[nH]c(=O)[nH]1 | -6.15 |
| O=C(CNc1cc2c(cc1Br)OCCO2)NC1CCS(=O)(=O)C1 (stereo not given) | -2.07 |
| NC(=O)CN1CCC(NC(=O)N2CCCC2c2ccncc2)CC1 (stereo not given) | -11.7 |
| O=C(Nc1cc2c(cc1Br)OCCO2)NC1CCS(=O)(=O)C1 (stereo not given) | 10.1 |
| Cc1nnc2n1CCN(C(=O)CN1C(=O)CSc3ccccc31)C2 | -3.59 |
| Cc1ncc(CN(C)C(=O)c2ccc3c(c2O)OC(C)(C)C3)s1 | -1.48 |
| Cc1nnc2n1CCN(C(=O)CN1C(=O)CCCc3ccccc31)C2 | 12.9 |

| SMILES | cytotoxicity at 70.5 h [%] |
| --- | --- |
| Cc1cc(CNc2ccc3nc(C4CC4)sc3c2)no1 | -9.59 |
| CCCNC(=O)C1CCN(CC2(O)CCC(C)CC2)CC1 (stereo not given) | -3.07 |
| CC1CCC(O)(CN2CCN(CCNC(=O)C3CCC3)CC2)CC1 (stereo not given) | -14.6 |
| O=C(NS(=O)(=O)c1cnn(-c2ccccc2F)c1)c1ccco1 | 1.58 |
| CC(C)c1cnc(CN2C(=O)CC3(CCSC3)C2=O)o1 (stereo not given) | -3.08 |
| Nc1nccnc1C(=O)N(Cc1ccco1)CC1CCCO1 (stereo not given) | -2.09 |
| CC(C)(C)c1cnc(CN2C(=O)CC3(CCSC3)C2=O)o1 (stereo not given) | -4.79 |
| CCOc1ccc(NC(=O)N(CCC#N)Cc2ccccn2)cc1F | 12 |
| COCCCNC(=O)C1CCN(CC2(O)CCC(C)CC2)CC1 (stereo not given) | -3.99 |
| CC(c1ccccc1)N(C)C(=O)CN1CCCc2cccc(F)c21 (stereo not given) | 0.621 |
| CC(C)c1noc(CN(C)C(c2ccc(F)cc2)c2cccnc2)n1 (stereo not given) | 10.2 |
| Cc1ncsc1CN(C)C(=O)C(CC(C)C)N1CCCCC1=O (stereo not given) | -2.15 |
| COCCNC(=O)c1nn(-c2cccc(C(C)C)c2)cc1O | 41.1 |
| Cc1noc(C)c1CN(C)CC(=O)/N=c1\cc[nH]n1C(C)C1CC1 (stereo not given) | 22.1 |
| COCc1nc(CNc2cccc(-c3ncon3)c2)cs1 | 29.2 |
| CCN(C(=O)CN1CCCC1c1ccc(OC)cc1)c1ccccc1C (stereo not given) | -0.0656 |
| Cc1sc2nc(SC(C)c3nc(C(C)C)no3)nc(N)c2c1C (stereo not given) | 3.75 |
| Cn1cc(CNC(=O)C2COCC(=O)N2Cc2ccccc2)cn1 (stereo not given) | 2.62 |
| CC(C)CCN(C(=O)c1cc2c([nH]c1=O)CCCC2=O)C1CC1 | -2.36 |
| COc1c(C)cnc(CNC(=O)CCc2nc3ccccc3[nH]2)c1C | -3.14 |
| Cc1occc1C(=O)N1CCC(C(O)c2ccc(Cl)cc2)CC1 (stereo not given) | 5.5 |
| CCc1cnc(CN2CCOC(c3nc(C)n[nH]3)C2)o1 (stereo not given) | -7.69 |

| SMILES | cytotoxicity at 70.5 h [%] |
| --- | --- |
| CNC(=O)c1csc(-c2ccoc2)n1 | -4.01 |
| O=c1[nH]nc(CNc2cncc(Br)c2)[nH]1 | 29.9 |
| CC(C)Cc1ccc(S(=O)(=O)NCCCN2CCNC(=O)C2)cc1 | -3.66 |
| CN(C)C(=O)CN1CCCc2c(F)cc(Br)cc21 | -2.61 |
| COc1ccccc1OCCC(=O)NCc1ncc(C)c(OC)c1C | -4.64 |
| COCCN(CCN(C)C)C(=O)NC1CC1 | -2.74 |
| COC(=O)c1cccc(CNC(=O)c2cc(C(C)C)n(C)n2)c1 | 27.4 |
| CC(Cn1cccn1)NCCS(=O)(=O)c1ccccc1 (stereo not given) | -8.75 |
| CC(Cn1cccn1)NCCS(=O)(=O)c1ccc(Cl)cc1 (stereo not given) | -9.68 |
| COc1ccc2c(c1)C(NCCc1c(C)noc1C)CCCO2 (stereo not given) | 29.3 |
| O=C(CN1CCCc2c(F)cc(Br)cc21)N1CCCC1 | 3.5 |
| CN(CC(O)C1CC1)C(=O)c1ccc(-c2nc(C3CC3)no2)cc1 (stereo not given) | 2.53 |
| COc1cccc(S(=O)(=O)CCNCCn2cccn2)c1 | -10.6 |
| CC(=O)N(c1ccc(C)cc1)c1nc(CN2CCCCC2C)cs1 (stereo not given) | 16.8 |
| CNS(=O)(=O)CCCN1CCN(C(C)c2cccnc2)CC1 (stereo not given) | 18.3 |
| COc1ccc(CCNC(=O)CC(NC(N)=O)c2ccccc2)cc1 (stereo not given) | 14.7 |
| Cc1nnc(NC(=O)NC(C)C(=O)NC2CCCC2)s1 (stereo not given) | -3.86 |
| CN(C)C(=O)CCNC(=O)NCc1ccc(Br)cc1Cl | 17.2 |
| CC(=O)NCCNC(=O)NCc1ccc(Br)cc1Cl | -0.47 |
| CC(=O)N(c1ccc(F)cc1)c1nc(CN2CCCC2C(C)C)cs1 (stereo not given) | 24.7 |
| O=C(CN1CCN(CCO)CC1)NCc1ccc(Cl)s1 | -1.03 |
| N#Cc1cc(N2CCC(S(N)(=O)=O)CC2)c2ccccc2n1 | -2.54 |

| SMILES | cytotoxicity at 70.5 h [%] |
| --- | --- |
| N#Cc1cc(N2CCC(CS(N)(=O)=O)CC2)nc2ccccc12 | 1.54 |
| N#Cc1cc(N2CCC(CS(N)(=O)=O)CC2)c2ccccc2n1 | 14.9 |
| CSc1nc(C2CC2)nc(C)c1C(=O)NCc1cc(C)on1 | -0.104 |
| O=C(c1ccc[nH]1)N1CCCC1c1nc(-c2ccccc2)n[nH]1 (stereo not given) | -1.48 |
| COC(=O)CN(Cc1ccccc1C)C(=O)C1CCC1 | 8.03 |
| CCOCCS(=O)(=O)N(CC)Cc1ccc(Cl)s1 | -11.4 |
| O=S(=O)(NCCc1c[nH]c2ccc(F)cc12)C1CCOCC1 | -16 |
| CC(Nc1ccc(CCN2CCCCC2)cc1)C(=O)N(C)CCC#N (stereo not given) | -6.46 |
| CN(C(=O)c1ccc(OCC(F)F)nc1)c1ccc2c(c1)CCO2 | -4.77 |
| COC(=O)CN(Cc1ccccc1C)C(=O)CCCNC(=O)C1CC1 | 10.1 |
| Cc1ccc(NC(=O)CCc2ccco2)cc1N1CCOC1=O | -10.1 |
| CCCc1nnc(NC(=O)N2CCCC(NC(C)=O)C2)s1 (stereo not given) | -4.43 |
| COc1ccc(S(=O)(=O)Cc2cc(C)on2)cc1 | -4.34 |
| COc1cccc(S(=O)(=O)Cc2cc(C)on2)c1 | -3.06 |
| Cc1cc(CS(=O)(=O)c2ccccc2)no1 | -5.49 |
| Cc1nc(NC(=O)C(C)S(C)(=O)=O)sc1Cc1ccccc1F (stereo not given) | -7.43 |
| COC(=O)N1CCC(NC(=O)CC(C)CCc2ccccc2)CC1 (stereo not given) | -14 |
| CC(CCc1ccccc1)CC(=O)NC1CCN(CC(N)=O)CC1 (stereo not given) | 0.475 |
| COc1ccnc(N2CCN(C(=O)CCc3cnn(C)c3)CC2)n1 | -11.9 |
